What all share (assay type): binding
Experiment [1] has as its system CD16a158V. Briefly: NHS-Ester ELISA Assay. The settings on record: NHS-Ester ligands 250 μM; 10 nM biotinylated CD16a protein. The protocol:
(§1) Pretreat ELISA plates (Costar 3922) using 200 μl […] (BSA, Heat Shock, Fraction V-American Bio AB01088-00100) in PBS for 2 hours at 25° C. with moderate shaking. BSA was removed and plates were washed. NHS-Ester ligands were diluted in PBS to 250 μM then added (100 μl/well) and incubated for 1 hour at 37° C. […] Plates are removed from the incubator and washed. CD16a/Streptavidin.HRP mixture was added to the plates (100 μl/well) and incubated for 1 hour at 25° C. with gentle shaking. Wash plates. Substrate (Super Signal ELISA Pico Chemiluminescent Substrate-Thermo 37069) was added (100 μl/well) and plates were incubated for 5 minutes at 25° C. with gentle shaking. Luminescence was then measured on the Biotek Synergy H1 microplate reader.
For orientation: An ELISA detects its analyte on a solid surface through an enzyme-linked reagent.

The target of experiment [2] is T1, CD16a158F (Homo sapiens, UniProt P08637). Briefly: NHS-Ester ELISA Assay. Also on record: purchased Acro Biosystems CDA-H82E8. To be noted: NHS-Ester ligands 250 μM; 10 nM biotinylated CD16a protein. As to the method: as §1
Experiment [3] deals with T2, CD16a158V (Homo sapiens, UniProt P08637, F176V). Briefly: Biotinylated Ligand ELISA Assay. The settings on record: Biotinylated CD16a protein at 10 nM. The protocol: (§2) Coat ELISA plates (Costar 3922) using Neutravidin (Thermo 31000) at 5 μg/ml (100 μl/well) for 1 hour at 37° C. Plates were washed 4 times with PBST (PBS, 0.05% Tween 20-200 μl, 1 minute/wash) then blocked using 200 μl 5% bovine serum albumin (BSA, Heat Shock, Fraction V-American Bio AB01088-00100) in PBST for 2 hours at 25° C. with moderate shaking. BSA was removed and plates were washed. Biotinylated ligands diluted in PBSTB (PBST+0.1% BSA) were then added (100 μl/well) and incubated for 1 hour at 25° C. with gentle shaking. Ligands were removed and plates were washed. Any remaining unoccupied neutravidin binding sites were blocked by adding 100 μM Biotin (Fisher BP232-1) (100 μl/well) and incubated for 1 hour at 25° C. with gentle shaking. Plates were then washed. […] Protein was removed and plates were washed. Streptavidin-HRP (Invitrogen 434323) diluted 1:5000 in PBSTB was added (100 μl/well) and incubated for 1 hour at 25° C. with gentle shaking. Wash plates. Substrate (Super Signal ELISA Pico Chemiluminescent Substrate-Thermo 37069) was added (100 μl/well) and plates were incubated for 5 minutes at 25° C. with gentle shaking. Luminescence was then measured on the Biotek Synergy H1 microplate reader.

For experiment [4], the target named is T1, CD16a158F. Briefly: Biotinylated Ligand ELISA Assay. Also on record: purchased Acro Biosystems CDA-H82E8. To be noted: Biotinylated CD16a protein at 10 nM. As to the method: as §2
The target in experiment [5] is T2, CD16a158V. Briefly: Microscale Thermophoresis. To be noted: read-out: MST-CD16a158V KD. The protocol:
Target proteins (poly-histidine tagged, 600 nM) were fluorescently labeled combination with an equal volume of dye (200 nM, His-Tag labeling kit RED-tris-NTA NanoTemper: MO-L008) PBST. The mixture rotated in the dark for 45 min before being spun down at 12000 rpm for 15 min to remove uncomplexed material. The fluorescence of the removed supernatant was adjusted to for a test concentration of 40-80 nM (2× the final measured). Test ligands were prepared across a 12-point dilution series in a 96-well PCR plate at a volume of 20 uL at 2× the concentration desired for testing (0.2% BSA in PBST). The dilution series was then combined with an equal volume of the labeled target at 2× the concentration desired for testing. Capillaries were added to the wells of the combined target/ligand complex and measured by MST. Measurements were taken using a Nanotemper Monolith NT.115, and the data was analyzed using NanoTemper MO.Control software.
Background: In MST a laser heats a spot of the sample, and binding alters the fluorescence response.

We go through 16 compounds from patent publication US12162892B2, “CD16a binding agents and uses thereof” (KLEO PHARMACEUTICALS, INC., priority 2018, dated 2024).

What is called Kd is the constant that tells how readily two partners part at equilibrium.

T2 sequence (P08637 17-208 F176V): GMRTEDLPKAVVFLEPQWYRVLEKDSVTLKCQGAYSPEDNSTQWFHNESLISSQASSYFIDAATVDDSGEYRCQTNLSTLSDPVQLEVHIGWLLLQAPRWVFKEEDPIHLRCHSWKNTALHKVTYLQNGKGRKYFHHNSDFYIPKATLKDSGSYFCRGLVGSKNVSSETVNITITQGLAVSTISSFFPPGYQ
T1 sequence (P08637 17-208 limits assumed): as the sequence (P08637 17-208 F176V) above, with V160F counted along it

Consider `COc1ccc(OC)c(N2C(=O)NC3(CCN(C(=O)Nc4cccc(-c5cn(CCOCCOCCOCCOCCOCCOCCOCCOCCOCCOCCOCCOCCC(=O)ON6C(=O)CCC6=O)nn5)c4)CC3)C2=O)c1` [Compound I-1], for which the “NHS ester ELISA-CD16a158V Binding (RLU)” value in experiment [1] is “C (a relative luminescence value (RLU) of 1,000-10,000)”. Moreover, the “NHS ester ELISA-CD16a158F Binding (RLU)” value in experiment [2] is listed as “B (a relative luminescence value (RLU) of 10,000-100,000)”.
For the compound `O=C(CCOCCOCCOCCOCCOCCOCCOCCOCCOCCOCCOCCOCCn1cc(-c2ccc(NC(=O)N3CCC4(CC3)NC(=O)N(Cc3ccccc3)C4=O)cc2)nn1)ON1C(=O)CCC1=O` [Compound I-2], the “NHS ester ELISA-CD16a158V Binding (RLU)” value in experiment [1] is on record as “C (a relative luminescence value (RLU) of 1,000-10,000)”. The “NHS ester ELISA-CD16a158F Binding (RLU)” value in experiment [2] was “B (a relative luminescence value (RLU) of 10,000-100,000)”.
On the same counts, the results for `O=C(CCOCCOCCOCCOCCOCCOCCOCCOCCOCCOCCOCCOCCn1cc(-c2cccc(-c3cnc(N4CCC5(CC4)NC(=O)N(Cc4ccccc4)C5=O)nc3)c2)nn1)ON1C(=O)CCC1=O` [Compound I-6] are “B (a relative luminescence value (RLU) of 10,000-100,000)” and “B (a relative luminescence value (RLU) of 10,000-100,000)”.
Take `O=C(CCOCCOCCOCCOCCOCCOCCOCCOCCOCCOCCOCCOCCn1cc(-c2cnc(N3CCC4(CC3)NC(=O)N(Cc3ccccc3)C4=O)nc2)nn1)ON1C(=O)CCC1=O` [Compound I-7]: in experiment [1], the “NHS ester ELISA-CD16a158V Binding (RLU)” value is listed as “B (a relative luminescence value (RLU) of 10,000-100,000)”. In experiment [2], the “NHS ester ELISA-CD16a158F Binding (RLU)” value is given as “C (a relative luminescence value (RLU) of 1,000-10,000)”.
Take `O=C(CCOCCOCCOCCOCCOCCOCCOCCOCCOCCOCCOCCOCCNC(=O)c1cnc(N2CCC3(CC2)NC(=O)N(Cc2ccccc2)C3=O)nc1)ON1C(=O)CCC1=O` [Compound I-8]: in experiment [1], the “NHS ester ELISA-CD16a158V Binding (RLU)” value is listed as “B (a relative luminescence value (RLU) of 10,000-100,000)”. Besides, in experiment [2], the “NHS ester ELISA-CD16a158F Binding (RLU)” value is recorded as “C (a relative luminescence value (RLU) of 1,000-10,000)”.
On the same counts, the results for `O=C(CCOCCOCCOCCOCCOCCOCCOCCOCCOCCOCCOCCOCCn1cc(-c2cccc(NC(=O)N3CCC4(CC3)NC(=O)N(c3ccccc3)C4=O)c2)nn1)ON1C(=O)CCC1=O` [Compound I-9] are “B (a relative luminescence value (RLU) of 10,000-100,000)” and “B (a relative luminescence value (RLU) of 10,000-100,000)”.
Regarding `O=C(CCCC[C@@H]1SC[C@@H]2NC(=O)N[C@@H]21)NCCOCCOCCOCCOCCOCCOCCOCCOCCNC(=O)c1ccc(S(=O)(=O)N2CCC3(CC2)NC(=O)N(c2ccccc2)C3=O)cc1` [Compound I-22], the “Biotinylated Ligand ELISA-CD16a158V Binding (RLU)” value in experiment [3] is listed as “B (a relative luminescence value (RLU) of 10,000-100,000)”. Also, the “Biotinylated Ligand ELISA-CD16a158F Binding (RLU)” value in experiment [4] is listed as “B (a relative luminescence value (RLU) of 10,000-100,000)”.
Consider `COc1ccc(OC)c(N2CC(C(=O)Nc3ccc(-c4cn(CCOCCOCCOCCOCCOCCOCCOCCOCCOCCOCCOCCOCCC(=O)ON5C(=O)CCC5=O)nn4)cc3)CC2=O)c1` (stereo not shown) [Compound I-25], for which the “NHS ester ELISA-CD16a158V Binding (RLU)” value in experiment [1] is reported as “C (a relative luminescence value (RLU) of 1,000-10,000)”. Further, in experiment [2], the “NHS ester ELISA-CD16a158F Binding (RLU)” value was “C (a relative luminescence value (RLU) of 1,000-10,000)”.
Turning to `COc1ccc(OC)c(N2CC(C(=O)Nc3ccc(-c4cn(CCOCCOCCOCCOCCOCCOCCOCCOCCC(=O)ON5C(=O)CCC5=O)nn4)cc3)CC2=O)c1` (stereo not shown) [Compound I-26], in experiment [1], the “NHS ester ELISA-CD16a158V Binding (RLU)” value is recorded as “C (a relative luminescence value (RLU) of 1,000-10,000)”. Moreover, in experiment [2], the “NHS ester ELISA-CD16a158F Binding (RLU)” value is recorded as “C (a relative luminescence value (RLU) of 1,000-10,000)”.
Consider `COc1ccc(N2CC(C(=O)Nc3ccc(-c4cn(CCOCCOCCOCCOCCOCCOCCOCCOCCNC(=O)CCCC[C@@H]5SC[C@@H]6NC(=O)N[C@@H]65)nn4)cc3)CC2=O)cc1` (stereo partly shown) [Compound I-33], for which the dissociation constant (Kd) in experiment [5] was in the range of 100 to 500 nM.
As for `COc1cccc(N2CC(C(=O)Nc3ccc(-c4cn(CCOCCOCCOCCOCCOCCOCCOCCOCCNC(=O)CCCC[C@@H]5SC[C@@H]6NC(=O)N[C@@H]65)nn4)cc3)CC2=O)c1` (stereo partly shown) [Compound I-34], the Kd in experiment [5] was 100 to 500 nM.
Consider `COc1ccccc1N1CC(C(=O)Nc2ccc(-c3cn(CCOCCOCCOCCOCCOCCOCCOCCOCCNC(=O)CCCC[C@@H]4SC[C@@H]5NC(=O)N[C@@H]54)nn3)cc2)CC1=O` (stereo partly shown) [Compound I-35], for which the dissociation constant (Kd) in experiment [5] was in the range of 100 to 500 nM.
For `CCOc1ccc(N2CC(C(=O)N3CCC(C(=O)NCCOCCOCCOCCOCCOCCOCCOCCOCCNC(=O)CCCC[C@@H]4SC[C@@H]5NC(=O)N[C@@H]54)CC3)CC2=O)cc1` (stereo partly shown) [Compound I-37], the dissociation constant Kd in experiment [5] fell in the range of 500 to 1000 nM.
For the compound `COc1ccc(OC)c(N2CC(C(=O)Nc3ccc(Cn4cnc(CCOCCOCCOCCOCCOCCOCCOCCOCCNC(=O)CCCC[C@@H]5SC[C@@H]6NC(=O)N[C@@H]65)n4)cc3)CC2=O)c1` (stereo partly shown) [Compound I-38], the Kd in experiment [5] lay in the range of 100 to 500 nM.
For the compound `COc1ccc(OC)c(N2CC(C(=O)Nc3cccc(-c4cn(CCOCCOCCOCCOCCOCCOCCOCCOCCNC(=O)CCCC[C@@H]5SC[C@@H]6NC(=O)N[C@@H]65)nn4)c3)CC2=O)c1` (stereo partly shown) [Compound I-40], the Kd in experiment [5] was 100 to 500 nM.
As to `COc1ccc(OC)c(N2CC(C(=O)Nc3ccc(CC4N=NC(COCCOCCOCCOCCOCCOCCOCCOCCNC(=O)CCCC[C@@H]5SC[C@@H]6NC(=O)N[C@@H]65)=N4)cc3)CC2=O)c1` (stereo partly shown) [Compound I-41], the Kd in experiment [5] fell in the range of 500 to 1000 nM.
